The values below come from patent publication US9029409B2, “Isoxazolines as therapeutic agents” (AbbVie Inc., priority 2011, dated 2015).

The target of the assay is T1, recombinant human MMP13 catalytic domain (CD) (Homo sapiens, UniProt P45452).
T1 construct: catalytic domain (CD) construct encompassing residues 20-274 (SWISS-PROT P45452); made in house
The assay can be described thus: MMP-13 catalytic domain FRET enzyme assay. It is filed as biochemical. The conditions noted are these: recombinant human MMP-13 catalytic domain. Put shortly: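 Human MMP-13 catalytic domain (res 20-274, E. coli-expressed), 0.4 nM, cleaving FRET peptide (0.25 μM) in Tris pH 7.5/CaCl2/NaCl/Brij 35, 5% DMSO, 60 min RT; EDTA-quenched, fluorescence 485/535 nm. IC50 from sigmoidal fit of % inhibition. Some compounds also run on APMA-activated full-length MMP13 (2 nM).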

As usually defined, the IC50 is the concentration that inhibits the measured activity by half. For the molecule `COc1ccc(CNC(=O)c2cc(C3=NOC(c4ccc(OCCO)cc4)C3)nc(C)n2)cc1` (centres unmarked), the IC50 lay in the range of 0.01 to 0.1 µM.

Turning to `COc1cc(CNC(=O)c2cc(C3=NOC(c4cccc(C(N)=O)c4)C3)nc(C)n2)ccc1F` (centres unmarked), the IC50 was less than 0.01 µM.

In the case of `COc1cc(CNC(=O)c2cc(C3=NOC(c4cccc(CN5CCOCC5)c4)C3)nc(C)n2)ccc1F` (centres unmarked), the IC50 is less than 0.01 µM.

Turning to `CNC(=O)c1cccc(C2CC(c3cc(C(=O)NCc4ccc(F)c(OC)c4)nc(C)n3)=NO2)c1` (centres unmarked), the IC50 was in the range of 0.01 to 0.1 µM.

As for `CNC(=O)c1ccc(C2CC(c3cc(C(=O)NCc4ccc(F)c(OC)c4)nc(C)n3)=NO2)cc1` (centres unmarked), the 50% inhibitory concentration (IC50) was less than 0.01 µM.

Consider `COc1cc(CNC(=O)c2cc(C3=NOC(c4ccsc4)C3)nc(C)n2)ccc1F` (centres unmarked), for which the half-inhibitory concentration (IC50) was less than 0.01 µM.

As to `Cc1nc(C(=O)NCc2ccc(F)c(Cl)c2)cc(C2=NO[C@@H]([C@H]3CC[C@H](NC(=O)[C@H](C)O)CC3)C2)n1`, the IC50 was 0.01 to 0.1 µM.

Take `COc1cc(CNC(=O)c2cc(C3=NO[C@H](c4ccc(=O)n(C)c4)C3)nc(C)n2)ccc1F`: the IC50 is less than 0.01 µM.

`COc1cc(CNC(=O)c2cc(C3=NO[C@@H](c4ccc(=O)n(C)c4)C3)nc(C)n2)ccc1F`: the IC50 was 0.1 to 1 µM.

`CC(=O)N[C@H]1CC[C@H](C2CC(c3cc(C(=O)NCc4ccncc4)nc(C)n3)=NO2)CC1` (some centres unmarked): the IC50 lay within 0.01 to 0.1 µM.

Consider `Cc1nc(C(=O)NCc2ccncc2)cc(C2=NO[C@H]([C@H]3CO[C@H](CO)CO3)C2)n1`, for which the IC50 fell in the range of 0.01 to 0.1 µM.

Consider `Cc1nc(C(=O)NCc2ccncc2)cc(C2=NO[C@@H]([C@H]3CO[C@H](CO)CO3)C2)n1`, for which the IC50 is greater than 1 µM.

On to `CC(=O)N[C@H]1CC[C@H](C2CC(c3cc(C(=O)NCc4ccn(C)c(=O)c4)nc(C)n3)=NO2)CC1` (some centres unmarked), for which the half-maximal inhibitory concentration (IC50) is greater than 1 µM.

Take `CC(=O)N[C@H]1CC[C@H](C2CC(c3cc(C(=O)NCc4ccc5c(c4)NC(=O)CO5)nc(C)n3)=NO2)CC1` (some centres unmarked): the half-inhibitory concentration (IC50) is less than 0.01 µM.

`COc1cc([C@@H](C)NC(=O)c2cc(C3=NOC(c4ccccc4)C3)nc(C)n2)ccc1F` (some centres unmarked): the IC50 is greater than 1 µM.

In the case of `COc1cc([C@H](C)NC(=O)c2cc(C3=NOC(c4ccccc4)C3)nc(C)n2)ccc1F` (some centres unmarked), the IC50 is greater than 1 µM.

As to `COc1cc(CNC(=O)c2cc(C3=NOC(C4CCN(C(C)=O)CC4)C3)nc(C)n2)ccc1F` (centres unmarked), the IC50 fell in the range of 0.01 to 0.1 µM.

Take `COc1cc(CNC(=O)c2cc(C3=NOC(C4CCN(S(C)(=O)=O)CC4)C3)nc(C)n2)ccc1F` (centres unmarked): the IC50 was less than 0.01 µM.

Turning to `COc1cc(CNC(=O)c2cc(C3=NOC(C4CCN(C(=O)CO)CC4)C3)nc(C)n2)ccc1F` (centres unmarked), the IC50 fell in the range of 0.01 to 0.1 µM.

For `COc1cc(CNC(=O)c2cc(C3=NO[C@@H]([C@@H]4CO[C@@H](CO)CO4)C3)nc(C)n2)ccc1F`, the IC50 is 0.1 to 1 µM.

In the case of `COc1cc(CNC(=O)c2cc(C3=NO[C@H]([C@@H]4CO[C@@H](CO)CO4)C3)nc(C)n2)ccc1F`, the IC50 was in the range of 0.01 to 0.1 µM.

In the case of `COc1cc(CNC(=O)c2cc(C3=NO[C@H]([C@H]4CO[C@H](CO)CO4)C3)nc(C)n2)ccc1F`, the half-maximal inhibitory concentration (IC50) was less than 0.01 µM.

For the molecule `COc1cc(CNC(=O)c2cc(C3=NOC(c4ccc(C(N)=O)cc4)C3)nc(C)n2)ccc1F` (centres unmarked), the 50% inhibitory concentration (IC50) is less than 0.01 µM.

Take `COc1cc(CNC(=O)c2cc(C3=NOC(C(=O)N4CCOCC4)C3)nc(C)n2)ccc1F` (centres unmarked): the IC50 was greater than 1 µM.

For the molecule `COc1cc(CNC(=O)c2cc(C3=NOC(c4ccnc(C(C)(C)O)c4)C3)nc(C)n2)ccc1F` (centres unmarked), the half-maximal inhibitory concentration (IC50) lay in the range of 0.01 to 0.1 µM.

`COc1cc(CNC(=O)c2cc(C3=NOC(c4nn[nH]n4)C3)nc(C)n2)ccc1F` (centres unmarked): the IC50 is greater than 1 µM.

Take `COc1cc(CNC(=O)c2cc(C3=NOC(C4CCN(C(=O)CS(C)(=O)=O)CC4)C3)nc(C)n2)ccc1F` (centres unmarked): the IC50 was 0.01 to 0.1 µM.

With `COc1cc(CNC(=O)c2cc(C3=NOC(C4CCN(C(=O)Nc5ccon5)CC4)C3)nc(C)n2)ccc1F` (centres unmarked), the IC50 fell in the range of 0.01 to 0.1 µM.

With `CNC(=O)N1CCC(C2CC(c3cc(C(=O)NCc4ccc(F)c(OC)c4)nc(C)n3)=NO2)CC1` (centres unmarked), the half-maximal inhibitory concentration (IC50) is less than 0.01 µM.

Turning to `COc1cc(CNC(=O)c2cc(C3=NO[C@H]([C@H]4CO[C@H](CC#N)CO4)C3)nc(C)n2)ccc1F`, the 50% inhibitory concentration (IC50) is less than 0.01 µM.

For the molecule `COc1cc(CNC(=O)c2cc(C3=NO[C@H]([C@H]4CO[C@H](CS(C)(=O)=O)CO4)C3)nc(C)n2)ccc1F`, the half-maximal inhibitory concentration (IC50) was 0.01 to 0.1 µM.

Turning to `COc1cc(CNC(=O)c2cc(C3=NO[C@H]([C@H]4CO[C@H](C(=O)O)CO4)C3)nc(C)n2)ccc1F`, the IC50 is less than 0.01 µM.

Regarding `COc1cc(CNC(=O)c2cc(C3=NOC(CN4CCOCC4)C3)nc(C)n2)ccc1F` (centres unmarked), the half-maximal inhibitory concentration (IC50) was greater than 1 µM.

Take `COc1cc(CNC(=O)c2cc(C3=NO[C@H]([C@H]4CO[C@H](C(N)=O)CO4)C3)nc(C)n2)ccc1F`: the IC50 is less than 0.01 µM.

For `COc1cc(CNC(=O)c2cc(C3=NOC(c4c[nH]cn4)C3)nc(C)n2)ccc1F` (centres unmarked), the IC50 was greater than 1 µM.

On to `COc1cc(CNC(=O)c2cc(C3=NOC([C@H]4CC[C@H](NC(=O)CC#N)CC4)C3)nc(C)n2)ccc1F` (some centres unmarked), for which the IC50 is less than 0.01 µM.

For the molecule `COc1cc(CNC(=O)c2cc(C3=NOC([C@H]4CC[C@H](NS(N)(=O)=O)CC4)C3)nc(C)n2)ccc1F` (some centres unmarked), the IC50 is less than 0.01 µM.

With `COc1cc(CNC(=O)c2cc(C3=NNC(c4cccnc4)C3)nc(C)n2)ccc1F` (centres unmarked), the 50% inhibitory concentration (IC50) fell in the range of 0.01 to 0.1 µM.

As to `CNC(=O)Cn1cc(C2CC(c3cc(C(=O)NCc4ccc(F)c(OC)c4)nc(C)n3)=NO2)ccc1=O` (centres unmarked), the IC50 was less than 0.01 µM.

With `COc1cc(CNC(=O)c2cc(C3=NO[C@H](c4ccn(C)c(=O)c4)C3)nc(C)n2)ccc1F`, the IC50 was less than 0.01 µM.

Turning to `COc1cc(CNC(=O)c2cc(C3=NO[C@@H](c4ccn(C)c(=O)c4)C3)nc(C)n2)ccc1F`, the IC50 fell in the range of 0.1 to 1 µM.

On to `COc1cc(CNC(=O)c2cc(C3=NOC(c4ccc(=O)n(C(C)C)c4)C3)nc(C)n2)ccc1F` (centres unmarked), for which the concentration for half-maximal inhibition (IC50) was less than 0.01 µM.

Consider `CC(=O)N[C@H]1CC[C@H](C2CC(c3cc(C(=O)NCc4ccnc5ccccc45)nc(C)n3)=NO2)CC1` (some centres unmarked), for which the IC50 lay within 0.1 to 1 µM.

As to `Cc1nc(C(=O)NCc2ccnc3ccccc23)cc(C2=NO[C@H]([C@H]3CO[C@H](CO)CO3)C2)n1`, the half-maximal inhibitory concentration (IC50) lay in the range of 0.1 to 1 µM.

Regarding `Cc1nc(C(=O)NCc2ccnc3ccccc23)cc(C2=NO[C@@H]([C@H]3CO[C@H](CO)CO3)C2)n1`, the IC50 was 0.1 to 1 µM.

As to `Cc1nc(C(=O)NCc2ccc3c(c2)NC(=O)CC3)cc(C2=NO[C@H]([C@H]3CO[C@H](CO)CO3)C2)n1`, the IC50 lay in the range of 0.01 to 0.1 µM.

For `Cc1nc(C(=O)NCc2ccc3c(c2)NC(=O)CC3)cc(C2=NO[C@@H]([C@H]3CO[C@H](CO)CO3)C2)n1`, the IC50 is 0.1 to 1 µM.

Turning to `CNC(=O)Cn1ccc(C2CC(c3cc(C(=O)NCc4ccc(F)c(OC)c4)nc(C)n3)=NO2)cc1=O` (centres unmarked), the IC50 fell in the range of 0.01 to 0.1 µM.

For `Cc1nc(C(=O)NCc2ccc(F)c(F)c2)cc(C2=NO[C@H](c3ccc(=O)n(C)c3)C2)n1`, the IC50 is less than 0.01 µM.

With `Cc1nc(C(=O)NCc2ccc(F)c(F)c2)cc(C2=NO[C@@H](c3ccc(=O)n(C)c3)C2)n1`, the IC50 was in the range of 0.1 to 1 µM.

Regarding `COc1ccc(C2CC(c3cc(C(=O)NCc4ccc(F)c(OC)c4)nc(C)n3)=NO2)nn1` (centres unmarked), the IC50 was in the range of 0.01 to 0.1 µM.

As for `CNC(=O)Cn1cc([C@@H]2CC(c3cc(C(=O)NCc4ccc(F)c(OC)c4)nc(C)n3)=NO2)ccc1=O`, the concentration for half-maximal inhibition (IC50) was less than 0.01 µM.

As for `CNC(=O)Cn1cc([C@H]2CC(c3cc(C(=O)NCc4ccc(F)c(OC)c4)nc(C)n3)=NO2)ccc1=O`, the half-inhibitory concentration (IC50) was in the range of 0.01 to 0.1 µM.
